One test has as its system Z-138 cells. The test can be described thus: Z-138 Proliferation Assay (Cell Titer Glo). It counts as cell-based. The note with it: Homo sapiens, 120 h, 5 days incubation. From the text: [formula] Z-138 Proliferation Assay
Z-138 suspension cells were purchased from ATCC (American Type Culture Collection, Manassas, Va.). RPMI/Glutamax medium, penicillin-streptomycin, heat inactivated fetal bovine serum were purchased from Life Technologies, Grand Island, N.Y., USA. V-bottom polypropylene 384-well plates were purchased from Greiner Bio-One, Monroe, N.C., USA. Cell culture 384-well white opaque plates were purchased from Perkin Elmer, Waltham, Mass., USA. Cell-Titer Glo® was purchased from Promega Corporation, Madison, Wis., USA. SpectraMax M5 plate reader was purchased from Molecular Devices LLC, Sunnyvale, Calif., USA.
Z-138 suspension cells were maintained in growth medium (RPMI 1640 supplemented with 10% v/v heat inactivated fetal bovine serum and cultured at 37° C. under 5% CO2. Under assay conditions, cells were incubated in assay medium (RPMI 1640 supplemented with 10% v/v heat inactivated fetal bovine serum and 100 units/mL penicillin-streptomycin) at 37° C. under 5% CO2.
For the assessment of the effect of compounds on the proliferation of the Z-138 cell line, exponentially growing cells were plated in 384-well white opaque plates at a density of 10,000 cells/ml in a final volume of 50 μl of assay medium. A compound source plate was prepared by performing triplicate nine-point 3-fold serial dilutions in DMSO, beginning at 10 mM (final top concentration of compound in the assay was 20 μM and the DMSO was 0.2%). A 100 nL aliquot from the compound stock plate was added to its respective well in the cell plate. […] After addition of compounds, assay plates were incubated for 5 days at 37° C., 5% CO2, relative humidity >90%.
Cell viability was measured by quantitation of ATP present in the cell cultures, adding 35 μl of Cell Titer Glo® reagent to the cell plates. Luminescence was read in the SpectraMax M5 microplate reader. The concentration of compound inhibiting cell viability by 50% was determined using a 4-parametric fit of the normalized dose response curves.

Test [1] relates to symmetric di-methyl arginine in Z-138 cells. Description: Z-138 Methylation Assay (In Cell Western for symmetric di-methyl arginine and DNA content). In kind it is cell-based. The conditions noted are these: Homo sapiens, 96 hours incubation, read-out: ICW EC50. From the text:
[formula] Where top and bottom are the normally allowed to float, but may be fixed at 100 or 0 respectively in a 3-parameter fit. The Hill Coefficient normally allowed to float but may also be fixed at 1 in a 3-parameter fit. Y is the % inhibition and X is the compound concentration. Z-138 Methylation Assay
Z-138 suspension cells were purchased from ATCC (American Type Culture Collection, Manassas, Va.). RPMI/Glutamax medium, penicillin-streptomycin, heat inactivated fetal bovine serum, and D-PBS were purchased from Life Technologies, Grand Island, N.Y., USA. Odyssey blocking buffer, 800CW goat anti-rabbit IgG (H+L) antibody, and Licor Odyssey infrared scanner were purchased from Licor Biosciences, Lincoln, Nebr., USA. Symmetric di-methyl arginine antibody was purchased from EMD Millipore, Billerica, Mass., USA. 16% Paraformaldehyde was purchased from Electron Microscopy Sciences, Hatfield, Pa., USA.
Z-138 suspension cells were maintained in growth medium (RPMI 1640 supplemented with 10% v/v heat inactivated fetal bovine serum and 100 units/mL penicillin-streptomycin) and cultured at 37° C. under 5% CO2.
Cell Treatment, in Cell Western (ICW) for Detection of Symmetric Di-Methyl Arginine and DNA Content.
Z-138 cells were seeded in assay medium at a concentration of 50,000 cells per mL to a 384-well cell culture plate with 50 μL per well. Compound (100 nL) from 384 well source plates was added directly to 384 well cell plate. Plates were incubated at 37° C., 5% CO2 for 96 hours. After four days of incubation, 40 μL of cells from incubated plates were added to poly-D-lysine coated 384 well culture plates (BD Biosciences 356697). Plates were incubated at room temperature for 30 minutes then incubated at 37° C., 5% CO2 for 5 hours. After the incubation, 40 μL per well of 8% paraformaldehyde in PBS (16% paraformaldahyde was diluted to 8% in PBS) was added to each plate and incubated for 30 minutes. Plates were transferred to a Biotek 405 plate washer and washed 5 times with 100 μL per well of wash buffer (IX PBS with 0.1% Triton X-100 (v/v)). Next 30 μL per well of Odyssey blocking buffer were added to each plate and incubated 1 hour at room temperature. Blocking buffer was removed and 20 μL per well of primary antibody was added (symmetric di-methyl arginine diluted 1:100 in Odyssey buffer with 0.1% Tween 20 (v/v)) and plates were incubated overnight (16 hours) at 4° C. Plates were washed 5 times with 100 μL per well of wash buffer. Next 20 μL per well of secondary antibody was added (1:200 800CW goat anti-rabbit IgG (H+L) antibody, 1:1000 DRAQ5 (Biostatus limited) in Odyssey buffer with 0.1% Tween 20 (v/v)) and incubated for 1 hour at room temperature. The plates were washed 5 times with 100 μL per well wash buffer then 1 time with 100 μL per well of water. Plates were allowed to dry at room temperature then imaged on the Licor Odyssey machine which measures integrated intensity at 700 nm and 800 nm wavelengths. Both 700 and 800 channels were scanned.
First, the ratio for each well was determined by:
Each plate included fourteen control wells of DMSO only treatment (minimum inhibition) as well as fourteen control wells for maximum inhibition treated with 3 μM of a reference compound (Background wells). The average of the ratio values for each control type was calculated and used to determine the percent inhibition for each test well in the plate. Reference compound was serially diluted three-fold in DMSO for a total of nine test concentrations, beginning at 3 μM. Percent inhibition was determined and IC50 curves were generated using triplicate wells per concentration of compound. […]

Bounds are passed on as bounds.

Broadly, the EC50 is the concentration needed to bring the measured effect to its halfway point.

As for `CN(C)S(=O)(=O)c1ccccc1OCC(=O)NC[C@H](O)CN1Cc2ccccc2C1` [compound 23], the values for the EC50 (in the test on Z-138 cells; in test [1]) were 0.101 to 1 µM and under 0.1 µM, respectively.
In the case of `CN1CCOc2cccc(OCC(=O)NC[C@H](O)CN3Cc4ccccc4C3)c21` [compound 26], the concentration giving a half-maximal response (EC50) with Z-138 cells was over 20 µM; in test [1] it was 0.101 to 1 µM.
The like results for `Cn1ncc2ccc(OCC(=O)NC[C@H](O)CN3Cc4ccccc4C3)cc21` [compound 27] were, in that order, over 20 µM and 1 to 10 µM.
The like results for `O=C(NC[C@H](O)CN1Cc2ccccc2C1)c1ccnc(NC2CCOCC2)c1` [compound 30] were, in that order, 1 to 10 µM and 0.101 to 1 µM.
Regarding `O=C(NC[C@H](O)CN1Cc2ccccc2C1)c1cncc(NC2CCNC2)c1` (stereo partly drawn) [compound 32], the EC50 with Z-138 cells was over 20 µM; in test [1], 1 to 10 µM.
The like results for `CS(=O)(=O)N1CCC(Nc2cncc(C(=O)NC[C@H](O)CN3Cc4ccccc4C3)c2)C1` (stereo partly drawn) [compound 33] were, in that order, over 20 µM and 0.101 to 1 µM.

The values are drawn from patent publication US10118918B2, “PRMT5 inhibitors and uses thereof” (Epizyme, Inc., priority 2012, dated 2018).
